Assay results: ChEMBL document CHEMBL1201861, “Genomics of Drug Sensitity in Cancer screening data, Wellcome Trust Sanger Institute”
pIC50: −log10 of the molar value.

Legend:
Format in all cases: functional, cell-based
[1] = system: D-423MG; test: cells; conditions: Homo sapiens
Description: SANGER: Inhibition of human D-423MG cell growth in a cell viability assay.

[2] = system: D-566MG; test: cells; conditions: Homo sapiens
[3] = system: ECC10; test: cells; conditions: Homo sapiens;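 note: growth inhibition of ECC10 cells, read out by a cell viability assay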
Description: SANGER: Inhibition of human ECC10 cell growth in a cell viability assay.

[4] = system: H-EMC-SS; test: cells; conditions: Homo sapiens
Description: SANGER: Inhibition of human H-EMC-SS cell growth in a cell viability assay.

[5] = system: H9; test: cells; conditions: Homo sapiens
Description: SANGER: Inhibition of human H9 cell growth in a cell viability assay.

[6] = system: KNS-62; test: cells; conditions: Homo sapiens;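 note: inhibition of cell growth, read out with a cell viability assay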
Description: SANGER: Inhibition of human KNS-62 cell growth in a cell viability assay.

[7] = system: LU-135; test: cells; conditions: Homo sapiens
Description: SANGER: Inhibition of human LU-135 cell growth in a cell viability assay.

[8] = system: NBsusSR; test: cells; conditions: Homo sapiens;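 note: growth inhibition of the human cell line, read out with a cell viability assay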
Description: SANGER: Inhibition of human NBsusSR cell growth in a cell viability assay.

[9] = system: NCI-H1048; test: cells; conditions: Homo sapiens;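 note: growth inhibition of human NCI-H1048 cells, read out with a cell viability assay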
Description: SANGER: Inhibition of human NCI-H1048 cell growth in a cell viability assay.

[10] = system: NCI-H1666; test: cells; conditions: Homo sapiens;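 note: growth inhibition of the cell line, read out with a cell viability assay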
Description: SANGER: Inhibition of human NCI-H1666 cell growth in a cell viability assay.

[11] = system: NCI-H1975; test: cells; conditions: Homo sapiens
Description: SANGER: Inhibition of human NCI-H1975 cell growth in a cell viability assay.

[12] = system: NCI-H2029; test: cells; conditions: Homo sapiens;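 note: Read-out is a viability assay on the cultured cells, and IC50 is the concentration that suppresses cell growth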
Description: SANGER: Inhibition of human NCI-H2029 cell growth in a cell viability assay.

[13] = system: NCI-H2291; test: cells; conditions: Homo sapiens
Description: SANGER: Inhibition of human NCI-H2291 cell growth in a cell viability assay.

[14] = system: OC-314; test: cells; conditions: Homo sapiens
Description: SANGER: Inhibition of human OC-314 cell growth in a cell viability assay.

[15] = system: RH-18; test: cells; conditions: Homo sapiens, Rh18;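 note: growth inhibition of human RH-18 cells, read out with a cell viability assay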
Description: SANGER: Inhibition of human RH-18 cell growth in a cell viability assay.

[16] = system: SW 1116; test: cells; conditions: Homo sapiens;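 note: growth inhibition of SW1116 cells, read out with a cell viability assay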
Description: SANGER: Inhibition of human SW1116 cell growth in a cell viability assay.

[17] = system: SW900; test: cells; conditions: Homo sapiens;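 note: IC50 is the concentration that inhibits SW900 cell growth, measured by a cell viability assay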
Description: SANGER: Inhibition of human SW900 cell growth in a cell viability assay.

[18] = system: A549; test: cells; conditions: Homo sapiens;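 note: growth inhibition of A549 cells, read out with a cell viability assay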
Description: SANGER: Inhibition of human A549 cell growth in a cell viability assay.

[19] = system: BALL-1; test: cells; conditions: Homo sapiens;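 note: growth inhibition of BALL-1 cells, read out with a cell viability assay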
Description: SANGER: Inhibition of human BALL-1 cell growth in a cell viability assay.

[20] = system: BT-549; test: cells; conditions: Homo sapiens
Description: SANGER: Inhibition of human BT-549 cell growth in a cell viability assay.

[21] = system: TGBC11TKB; test: cells; conditions: Homo sapiens;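 note: growth inhibition of human TGBC11TKB cells, measured by a cell viability assay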
Description: SANGER: Inhibition of human TGBC11TKB cell growth in a cell viability assay.

[22] = system: TI-73; test: cells; conditions: Homo sapiens;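 note: cell viability assay measuring how much compounds suppress growth of the cultured cell line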
Description: SANGER: Inhibition of human TI-73 cell growth in a cell viability assay.

[23] = system: ZR-75-30; test: cells; conditions: Homo sapiens;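 note: growth inhibition of ZR-75-30 cells, measured with a cell viability readout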
Description: SANGER: Inhibition of human ZR-75-30 cell growth in a cell viability assay.

[24] = system: CFPAC-1; test: cells; conditions: Homo sapiens;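 note: cell viability readout used to gauge suppression of CFPAC-1 cell proliferation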
Description: SANGER: Inhibition of human CFPAC-1 cell growth in a cell viability assay.

[25] = system: CRO-AP2; test: SANGER: Inhibition of human CRO-AP2 cell growth in a cell viability assay.
[26] = system: ECC12; test: cells; conditions: Homo sapiens
Description: SANGER: Inhibition of human ECC12 cell growth in a cell viability assay.

[27] = system: EW-12; test: SANGER: Inhibition of human EW-12 cell growth in a cell viability assay.
[28] = system: NCI-H128; test: SANGER: Inhibition of human NCI-H128 cell growth in a cell viability assay.
[29] = system: NCI-H2227; test: cells; conditions: Homo sapiens;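 note: growth inhibition of the human cell line, read out with a cell viability assay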
Description: SANGER: Inhibition of human NCI-H2227 cell growth in a cell viability assay.

[30] = system: RL95-2; test: cells; conditions: Homo sapiens;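 note: RL95-2 growth inhibition determined through a cell viability readout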
Description: SANGER: Inhibition of human RL95-2 cell growth in a cell viability assay.

[31] = system: SKM-1; test: SANGER: Inhibition of human SKM-1 cell growth in a cell viability assay.
[32] = system: Caov-3 cell line; test: cells; conditions: Homo sapiens;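 note: cell growth inhibition read out by a viability assay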
Description: SANGER: Inhibition of human Caov-3 cell growth in a cell viability assay.

[33] = system: Caov-4; test: cells; conditions: Homo sapiens
Description: SANGER: Inhibition of human Caov-4 cell growth in a cell viability assay.

[34] = system: DMS-53; test: cells; conditions: Homo sapiens;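 note: cell viability assay measuring growth inhibition of human DMS-53 cells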
Description: SANGER: Inhibition of human DMS-53 cell growth in a cell viability assay.

[35] = system: DV-90; test: cells; conditions: Homo sapiens;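 note: Read-out is a viability assay, with IC50 reflecting the drop in DV-90 cell growth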
Description: SANGER: Inhibition of human DV-90 cell growth in a cell viability assay.

[36] = system: EFE-184; test: cells; conditions: Homo sapiens
Description: SANGER: Inhibition of human EFE-184 cell growth in a cell viability assay.

[37] = system: HCC1143; test: cells; conditions: Homo sapiens;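 note: growth inhibition of human HCC1143 cells, read out with a cell viability assay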
Description: SANGER: Inhibition of human HCC1143 cell growth in a cell viability assay.

[38] = system: MDA-MB-468; test: cells; conditions: Homo sapiens
Description: SANGER: Inhibition of human MDA-MB-468 cell growth in a cell viability assay.

[39] = system: MES-SA; test: cells; conditions: Homo sapiens;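 note: growth inhibition of human MES-SA cells, read out with a cell viability assay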
Description: SANGER: Inhibition of human MES-SA cell growth in a cell viability assay.

[40] = system: MFE-296; test: SANGER: Inhibition of human MFE-296 cell growth in a cell viability assay.
[41] = system: NCI-H1618; test: cells; conditions: Homo sapiens;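 note: growth inhibition of human NCI-H1618 cells, measured by a cell viability assay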
Description: SANGER: Inhibition of human NCI-H1618 cell growth in a cell viability assay.

[42] = system: NCI-H1734; test: cells; conditions: Homo sapiens;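 note: growth inhibition of human NCI-H1734 cells, read out with a cell viability assay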
Description: SANGER: Inhibition of human NCI-H1734 cell growth in a cell viability assay.

[43] = system: NCI-H838; test: cells; conditions: Homo sapiens;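 note: growth inhibition of human NCI-H838 cells, read out by a cell viability assay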
Description: SANGER: Inhibition of human NCI-H838 cell growth in a cell viability assay.

[44] = system: PLC-PRF-5; test: cells; conditions: Homo sapiens;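 note: growth inhibition of human PLC-PRF-5 cells, read out with a viability assay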
Description: SANGER: Inhibition of human PLC-PRF-5 cell growth in a cell viability assay.

[45] = system: SK-CO-1; test: cells; conditions: Homo sapiens;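 note: growth inhibition of SK-CO-1 cells, determined by a viability readout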
Description: SANGER: Inhibition of human SK-CO-1 cell growth in a cell viability assay.

[46] = system: SNG-M; test: cells; conditions: Homo sapiens
Description: SANGER: Inhibition of human SNG-M cell growth in a cell viability assay.

[47] = system: SNU-475; test: cells; conditions: Homo sapiens
Description: SANGER: Inhibition of human SNU-475 cell growth in a cell viability assay.

[48] = system: C-4-II; test: SANGER: Inhibition of human C-4-II cell growth in a cell viability assay.
[49] = system: TT; test: cells; conditions: Homo sapiens
Description: SANGER: Inhibition of human TT cell growth in a cell viability assay.

[50] = system: CCF-STTG1; test: cells; conditions: Homo sapiens;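 note: growth inhibition of human CCF-STTG1 cells, determined with a cell viability read-out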
Description: SANGER: Inhibition of human CCF-STTG1 cell growth in a cell viability assay.

[51] = system: COLO 205; test: cells; conditions: Homo sapiens
Description: SANGER: Inhibition of human COLO-205 cell growth in a cell viability assay.

[52] = system: CHP-134; test: SANGER: Inhibition of human CHP-134 cell growth in a cell viability assay.

`Cn1cc(/C=C2\C(=O)Nc3cccnc32)c2ccccc21` gave a pIC50 [1] of under 5.70, a pIC50 [2] of under 5.70 and a pIC50 [3] of under 5.70. The pIC50 [4] was 6.12, the pIC50 [5] was under 5.70 and the pIC50 [6] was under 5.70. For the same compound, the pIC50 [7] was under 5.70, the pIC50 [8] was under 5.70 and the pIC50 [9] was under 5.70. The pIC50 [10] was under 5.70, the pIC50 [11] was under 5.70 and the pIC50 [12] was under 5.70. The pIC50 [13] was under 5.70, the pIC50 [14] was under 5.70 and the pIC50 [15] was under 5.70. The pIC50 [16] was under 5.70, the pIC50 [17] was under 5.70 and the pIC50 [18] was under 5.70. The pIC50 [19] was under 5.70, the pIC50 [20] was under 5.70 and the pIC50 [21] was under 5.70. For the same compound, the pIC50 [22] was under 5.70, the pIC50 [23] was under 5.70 and the pIC50 [24] was under 5.70.
Work on `Cc1ccc(NC(=O)c2cccc(C(C)(C)C#N)c2)cc1Nc1ccc2ncn(C)c(=O)c2c1` yielded a pIC50 [25] of under 5.40, a pIC50 [26] of 5.77 and a pIC50 [27] of under 5.40. The pIC50 [28] was under 5.40, the pIC50 [29] was under 5.40 and the pIC50 [30] was under 5.40. For the same compound, the pIC50 [31] was under 5.40.
Compound `O=c1[nH]c2ccccc2n1C1CCN(Cc2ccc(-c3nc4cc5[nH]cnc5cc4nc3-c3ccccc3)cc2)CC1` has a pIC50 [32] of under 5.59, a pIC50 [33] of under 5.59 and a pIC50 [34] of under 5.59. The pIC50 [35] was under 5.59, the pIC50 [26] was under 5.59 and the pIC50 [36] was under 5.59. The pIC50 [37] was under 5.59, the pIC50 [38] was under 5.59 and the pIC50 [39] was under 5.59. For the same compound, the pIC50 [40] was 5.86, the pIC50 [41] was under 5.59 and the pIC50 [42] was under 5.59. The pIC50 [29] was under 5.59, the pIC50 [43] was under 5.59 and the pIC50 [44] was under 5.59. It also gave a pIC50 [30] of under 5.59, a pIC50 [45] of under 5.59 and a pIC50 [46] of under 5.59. It also gave a pIC50 [47] of under 5.59, a pIC50 [48] of under 5.59 and a pIC50 [49] of under 5.59. For the same compound, the pIC50 [50] was under 5.59 and the pIC50 [51] was 5.70.
`NC(=O)c1ncn([C@@H]2O[C@H](COP(=O)(O)O)[C@@H](O)[C@H]2O)c1N` gave a pIC50 [1] of under 2.70, a pIC50 [2] of under 2.70 and a pIC50 [6] of 3.00. It also gave a pIC50 [7] of under 2.70, a pIC50 [8] of 3.32 and a pIC50 [9] of under 2.70. For the same compound, the pIC50 [10] was under 2.70, the pIC50 [11] was 2.97 and the pIC50 [13] was under 2.70. It also gave a pIC50 [15] of under 2.70, a pIC50 [16] of under 2.70 and a pIC50 [17] of under 2.70. For the same compound, the pIC50 [18] was under 2.70, the pIC50 [19] was under 2.70 and the pIC50 [20] was 3.09. The pIC50 [21] was under 2.70, the pIC50 [22] was 3.14 and the pIC50 [23] was under 2.70. The pIC50 [24] was 2.95.
In the case of `Fc1cc(-c2cc[nH]/c(=N/c3ccc(-n4cnc(N5CCOCC5)n4)cc3)n2)cc(N2CCOCC2)c1`, the pIC50 [32] was under 5.29, the pIC50 [33] was under 5.29 and the pIC50 [34] was 5.97. It also gave a pIC50 [35] of 6.02, a pIC50 [26] of 6.49 and a pIC50 [36] of 5.52. It also gave a pIC50 [37] of 6.02, a pIC50 [38] of 6.02 and a pIC50 [39] of 6.14. It also gave a pIC50 [40] of 6.76, a pIC50 [41] of 5.74 and a pIC50 [42] of 6.23. It also gave a pIC50 [29] of under 5.29, a pIC50 [43] of 6.38 and a pIC50 [44] of 5.40. The pIC50 [30] was 6.18, the pIC50 [45] was 6.04 and the pIC50 [46] was 6.19. The pIC50 [47] was under 5.29, the pIC50 [48] was 6.39 and the pIC50 [49] was 5.45. It also gave a pIC50 [50] of 6.20 and a pIC50 [51] of 6.82.
`Cn1c(=O)n(-c2ccc(C(C)(C)C#N)cc2)c2c3cc(-c4cnc5ccccc5c4)ccc3ncc21` [DACTOLISIB] showed a pIC50 [1] of 7.28, a pIC50 [2] of 7.75 and a pIC50 [3] of 7.50. For the same compound, the pIC50 [4] was 6.83, the pIC50 [6] was 7.34 and the pIC50 [7] was under 5.70. The pIC50 [8] was 7.61, the pIC50 [9] was 7.06 and the pIC50 [10] was 8.01. It also gave a pIC50 [12] of 5.85, a pIC50 [13] of 6.22 and a pIC50 [14] of 7.41. It also gave a pIC50 [15] of 6.40, a pIC50 [16] of under 5.70 and a pIC50 [17] of 6.81. For the same compound, the pIC50 [18] was 7.99, the pIC50 [19] was under 5.70 and the pIC50 [20] was 6.92. It also gave a pIC50 [21] of 6.39, a pIC50 [22] of 7.60 and a pIC50 [23] of under 5.70. It also gave a pIC50 [24] of 6.82 and a pIC50 [52] of 6.86.
